Experimental findings from PMC4389225, “Triaminopyrimidine is a fast-killing and long-acting antimalarial clinical candidate” (Nature Communications, 2015) are described below.

Series [1] can be described thus: Acute anaesthetised guinea pig CVS model, compound 2. It counts as in vivo. How it is done: Protein binding (human free)
Guinea Pig Study: Anaesthetised guinea pigs (n=2) were treated with compound 2 at 5 mg/kg followed by 15 mg/kg (AstraZeneca, Alderley Park, UK) using methodology based on that used to assess compound 12 at Biotrial, France. Haemodynamic and electrocardiography […]
achieved with compound 2 in an early mouse model once exposures reached approximately 9 μM Cmax (total). Consequently, compound 2 was classified as having no therapeutic window preclinically in this model. […]

The subject of another series is Dd2. In words: SYBR green growth assay, Dd2 (parental). The class given is cell-based, P. falciparum. As to conditions: Plasmodium falciparum, DD2, Dd2 parental; mean ± SD, Supplementary Table 13. How it is done: To eliminate overlapping mode of action with known targets, cross-resistance testing of representative TAPs against drug-resistant lines with well-characterized mutations in Pf dihydroorotate dehydrogenase, Pf heat-shock protein 90, Pf chloroquine resistance transporter[25] or Pf cytochrome b reduction site[26] was performed. […] Assays were carried out in 384-well format with three technical replicates within an assay day and biological replicates carried out on three different assay days to assign a final EC50.
A representative TAP (compound 6) was tested for its activity against a panel of P. falciparum strains known to harbour mutations conferring resistance to antimalarial agents under development. Artesunate and amodiaquine were included as additional control […]
Values are the means ± standard deviation derived from three independent assays performed

The test system of a further series is Dd2 DHODH DSM265. Briefly: [3H]-hypoxanthine incorporation assay, Dd2 DHODH DSM265 resistant. It counts as cell-based. As to conditions: Plasmodium falciparum. The method, then: (§1) Supplementary Table 3: Compound 9 and 12 retain their activity against Pf strains harbouring mutations to novel antimalarial agents in clinical development. Compound 9 and 12 were tested for their antiplasmodial activity against a panel of Pf strains known to harbour mutations conferring resistance to novel agents under clinical development. Parasite growth inhibition is measured using the [3H]-hypoxanthine incorporation assay. IC50s are established for each strain (n ≥2) and compared to the IC50 of Dd2 (standard pan-resistant […]

A further series concerns PfATP4 Cpd 3. In words: [3H]-hypoxanthine incorporation assay, PfATP4 Cpd 3 resistant. The class given is cell-based. The following applies: Plasmodium falciparum. How it is done: as §1
The nature of series [2]: Acute anaesthetized guinea pig cardiovascular (CVS) model, compound 12. The class given is in vivo. The method, then: Male Dunkin Hartley guinea pigs (n=6 per group; 342–401 g; 4–5 weeks old; Charles River Laboratories, L’Arbresle, Cedex) were anaesthetized with sodium pentobarbitone (60 mg kg^−1 intraperitoneally followed by 6 mg kg^−1 h^−1 i.v. (jugular) for maintenance) and mechanically ventilated. Animals were surgically prepared for the measurement of haemodynamic (blood pressure, heart rate and contractility (including left ventricular pressure)) and electrocardiographic (ECG)-derived parameters (QTcB, PR interval and QRS duration). Briefly, catheters were introduced into a carotid artery and a jugular vein for the measurement of arterial blood pressure and administration of the test item, respectively. Needle electrodes were placed subcutaneously in a lead II position for ECG recording. A fluid-filled catheter was introduced into the left ventricle via the opposite carotid artery for left ventricular pressure measurement.
Animals received two consecutive i.v. infusions of either vehicle (group 1; 40% v/v dimethylacetamide/20% v/v polyethylene glycol 400/17% w/v hydroxyl propyl beta cyclodextrin (HPβCD/kleptose) in water for injection) or compound 12 at 10 or 30 mg kg^−1 (group 2). Each infusion lasted for 15 min at a dose volume of 3 ml kg^−1 (rate of 0.2 ml kg^−1 min^−1). Animals were monitored for a further 30-min washout period. Blood samples were taken at 5, 10 and 15 min after the start of each infusion and at 5, 10, 20 and 30 min during the washout phase.
Following a stabilization period, haemodynamic and ECG parameters were measured (using HEM software, version 4.3, Notocord Systems) at 10 and 5 min before administration (mean of measurements obtained at these time points=baseline; T0), and 2.5, 5, 10 and 15 min after the start of each i.v. infusion of compound 12 or vehicle and 5, 10, 20 and 30 min after the end of the second infusion. A detailed description of the model, its background and validation has been described earlier.
All parameters were analysed statistically using SAS software. Baseline values were defined as mean of measurments taken 10 or 5 min before dosing. For each parameter, homogeneity of baseline values (T0) between the two groups were tested using a two-tailed Student’s t-test. Changes from baseline were assessed using a two-way analysis of variance (group and time) with repeated measurements over the time and group × time interaction.
Anaesthetised Guinea Pig Cardiovascular toxicity study for compound 12. Group mean ±SEM data are presented in Supplementary Fig. 16a to 16l. Mean ± standard error plasma exposure data are illustrated in Supplementary Fig. 16m. The mean of the two control recording periods was used as a baseline value. Administration of vehicle produced the expected level of variability in cardiovascular parameters over the time course of this study.
This was considered within acceptable ranges for vehicle data. Actual changes caused by compound 12 were derived by subtracting the effect of the time-matched vehicle data and are discussed using mean % change from baseline values. All findings reported below achieved statistical significance (P < 0.05), unless indicated as a trend. Isolated incidences of statistical significance, that show no relation to compound effects, were not considered of […]
Blood pressure, LVP and heart rate effect: Following i.v. administration of compound 12 at 10 mg/kg, the following observations were noted:
- A 15% decrease in dP/dtmax (an index of cardiac contractility).
As the dose increased to 30 mg/kg, the following effects were observed:
- A 8% decrease in heart rate (HR), - A 10% decrease in left ventricular systolic pressure (LVsys), - A 27% decrease in dP/dtmax.
There was evidence of recovery for dP/dtmax during the 30 minutes wash-out period.
Despite attaining statistical significance, the magnitude of the effects on dP/dtmax at […]

For a further series, the system named is Pf 3D7A. Briefly: in vitro parasite reduction ratio (PRR) assay. The following applies: after 48 h of exposure, 10 times IC50.

A value given as a limit tells only on which side of the number the result lay.

In the case of `Cc1cc(Nc2ncc(N3CCN(C)CC3)c(N3CCCC3)n2)ccn1` [compound 2], in series [1] (5 mg/kg i.v.), the “A - Plasma Cmax Total” value was determined as 4530 nM; the “Safety Margin (A / B)” value is recorded as “None”; the “Summary of clinical signs and effects” value is listed as “Haemodynamic Effects”. For the same molecule, in series [1] (15 mg/kg i.v.), the “A - Plasma Cmax Total” value was determined as 20420 nM; the “Safety Margin (A / B)” value is on record as “None”; the “Summary of clinical signs and effects” value was “Haemodynamic & ECG Effects”.
In general, IC50 refers to the point on the concentration scale where inhibition reaches its midpoint. Turning to `Cc1nc(Nc2ncc(N3CCN(C)[C@H](C)C3)c(Nc3cc(C)n(C)n3)n2)cc(C2CC2)c1F` [compound 12, (R)-N2-(4-cyclopropyl-5-fluoro-6-methylpyridin-2-yl)-N4-(1,5-dimethyl-1H-pyrazol-3-yl)-5-(3,4-dimethylpiperazin-1-yl)pyrimidine-2,4-diamine], the values for the IC50 in the series with Dd2, in the series with Dd2 DHODH DSM265 and in the series on PfATP4 Cpd 3 were 16.1 ± 1 nM, 6.5 nM and 10 nM, respectively. The “PR interval, QRS duration and QTcB interval” value in series [2] (10 mg/kg i.v.) is “unaffected”. Besides, the “decrease in dP/dtmax (index of cardiac contractility)” value in series [2] (10 mg/kg i.v., vehicle-corrected mean % change from baseline) is on record as 15%. Moreover, in series [2] (30 mg/kg i.v.), the “decrease in heart rate (HR)” value was determined as 8%. Moreover, in series [2] (30 mg/kg i.v.), the “decrease in left ventricular systolic pressure (LVsys)” value was found to be 10%. Moreover, the “increase in QTcB” value in series [2] (30 mg/kg i.v.) is recorded as 7%. For the same molecule, the “decrease in dP/dtmax” value in series [2] (30 mg/kg i.v., vehicle-corrected mean % change from baseline) was 27%. For the same molecule, the “A—plasma Cmax free” value in series [2] (guinea pig, 10 mg kg^−1 i.v.) stood at 90 nM; in series [2] (guinea pig, 30 mg kg^−1 i.v.) it was 280 nM. The “Safety margin (A/B)-free Cmax” value was 10.3 in series [2] (guinea pig, 10 mg kg^−1 i.v.) and 32.2 in series [2] (guinea pig, 30 mg kg^−1 i.v.). Besides, the “Summary of clinical signs and effects” value is “NOEL” in series [2] (guinea pig, 10 mg kg^−1 i.v., NOEL = no observed effect level); “Contractility and QTcB effects” in series [2] (guinea pig, 30 mg kg^−1 i.v.). In addition, the “Peak total plasma concentration” value in series [2] (guinea pig, 10 mg/kg i.v.) was found to be 1.69 ± 0.15 µmol/L; in series [2] (guinea pig, 30 mg/kg i.v.), 5.05 ± 0.64 µmol/L. In series [2] (guinea pig, i.v.), the NOEL is 10 mg/kg. The “log kill in PRR assay” value in the series on Pf 3D7A is reported as above 4 log.
